Columns and labels:
[1] = literature values of Kovacs, Mant, Hodges 2006; cited from earlier work
[2] = Relative hydrophobicity by reversed-phase HPLC retention time (method of Hodges and coworkers); format: physicochemical; conditions: for retention time, tR (measure of hydrophobicity): Kromasil C18, 0.2% TFA water/ACN linear gradient 0.25% ACN/min from 55% B, 0.3 mL/min, 25° C., co-injection, FIG. 4; for retention time difference ΔtR relative to allo-D-Thr/allo-L-Thr pair: same reversed-phase HPLC conditions, CF3 vs CH3
Procedure: As fluorination can decrease the hydrophilicity of a molecule [(a) Böhm, H-J.; Banner, D.; Bendels, S.; Kansy, M.; Kuhn, B.; Müller, K.; Obst-Sander, U.; Stahl, M. Chem BioChem. 2004, 5, 637-643. […] 1996, 276, 1049-1057.], the hydrophobicity of Fmoc-tfT (1a and 1b) relative to their non-fluorinated counterparts was determined. The chromatography method developed by Hodges and coworkers [Kovacs, J. M.; Mant, C. T.; Hodges, R. S. Biopolymers (Peptide Science) 2006, 84, 283-297.], who determined the relative hydrophobicity of 23 L-amino acids and their D-enantiomers, was used. As pointed out by Hodges and coworkers [Kovacs, J. M.; Mant, C. T.; Hodges, R. S. Biopolymers (Peptide Science) 2006, 84, 283-297.], a criterion for measuring true hydrophobicity of an amino acid is that the D/L enantiomers should give the same retention time, tR. […] All of the enantiomeric pairs, allo-D-Thr/allo-L-Thr (tR=7.2 min), D-Thr/L-Thr (tR=9.2 min) and allo-D-tfT/allo-L-tfT (tR=11.6 min), co-elute, satisfying the criterion established by Hodges and coworkers. [Kovacs, J. M.; Mant, C. T.; Hodges, R. S. Biopolymers (Peptide Science) 2006, 84, 283-297.] In reversed-phase chromatography, a larger retention time typically indicates a more hydrophobic molecule. The allo-D-tfT/allo-L-tfT pair is more retentive than the allo-D-Thr/allo-L-Thr pair (ΔtR=11.6−7.2=4.2 min). […] [Kovacs, J. M.; Mant, C. T.; Hodges, R. S. Biopolymers (Peptide Science) 2006, 84, 283-297.]
In FIG. 4, all chromatography runs followed exactly the same conditions used by Hodges and coworkers [Zhang, X. G.; Ni, W. J.; van der Donk, W. A. J. Org. Chem. 2005, 70, 6685-6692.]. The HPLC conditions are as follows: column, Kromasil C18 (150 mm×2.1 mm I.D., 5 μm, 100 Å pore size, Higgins Analytical, Inc., CA); mobile phase, A: 0.2% TFA (trifluoroacetic acid) in water, B: 0.2% TFA in ACN (acetonitrile); condition, linear AB gradient (0.25% ACN/min, starting from 55% B); flow rate, 0.3 mL/min; temperature, 25° C. 1a and 1b were purified by silica-gel column chromatography and dissolved in mobile phase B before injection. allo-D-N-Fmoc-O-tert-butyl-Thr and allo-L-N-Fmoc-O-tert-butyl-Thr were from BACHEM California Inc. D-N-Fmoc-O-tert-butyl-Thr and L-N-Fmoc-O-tert-butyl-Thr were from Novabiochem.

SMILES: C[C@H](N)C(=O)O [Ala]
- retention time difference ΔtR relative to Gly [1]: 2.8 min

SMILES: N[C@@H](CS)C(=O)O [Cys, cysteine]
- retention time difference ΔtR relative to Ala [1]: 4.8 min

SMILES: C[C@H](OC(C)(C)C)[C@@H](NC(=O)OCC1c2ccccc2-c2ccccc21)C(=O)O [D-Thr, (2R,3S)-N-Fmoc-O-tert-butyl-threonine]
- retention time, tR (measure of hydrophobicity) [2]: 9.2 min

SMILES: C[C@@H](OC(C)(C)C)[C@H](NC(=O)OCC1c2ccccc2-c2ccccc21)C(=O)O [L-Thr, (2S,3R)-N-Fmoc-O-tent-butyl-threonine]
- retention time, tR (measure of hydrophobicity) [2]: 9.2 min

SMILES: CC(C)[C@H](N)C(=O)O [Val]
- retention time difference ΔtR relative to Ala [1]: 10.6 min

SMILES: C[C@@H](OC(C)(C)C)[C@@H](NC(=O)OCC1c2ccccc2-c2ccccc21)C(=O)O [allo-D-Thr, (2R,3R)-N-Fmoc-O-tert-butyl-threonine]
- retention time, tR (measure of hydrophobicity) [2]: 7.2 min

SMILES: CC(C)(C)O[C@@H]([C@@H](NC(=O)OCC1c2ccccc2-c2ccccc21)C(=O)O)C(F)(F)F [allo-D-tfT, (2R,3S)-2-(((9H-fluoren-9-yl)methoxy)carbonylamino)-3-tert-butoxy-4,4,4-trifluorobutanoic acid]
- retention time, tR (measure of hydrophobicity) [2]: 11.6 min
- retention time difference ΔtR relative to allo-D-Thr/allo-L-Thr pair [2]: 4.2 min

SMILES: C[C@H](OC(C)(C)C)[C@H](NC(=O)OCC1c2ccccc2-c2ccccc21)C(=O)O [allo-L-Thr, (2S,3S)-N-Fmoc-O-tent-butyl-threonine]
- retention time, tR (measure of hydrophobicity) [2]: 7.2 min

SMILES: CC(C)(C)O[C@H]([C@H](NC(=O)OCC1c2ccccc2-c2ccccc21)C(=O)O)C(F)(F)F [allo-L-tfT, (2S,3R)-4,4,4-trifluoro-N-Fmoc-O-tert-butyl-threonine]
- retention time, tR (measure of hydrophobicity) [2]: 11.6 min
- retention time difference ΔtR relative to allo-D-Thr/allo-L-Thr pair [2]: 4.2 min

Reference: US20100099845A1, “PROTECTED ENANTIOPURE TRIFLUOROTHREONINES AND METHODS OF MAKING AND USING SAME” (University of Utah Research Foundation, priority 2006, published 2010)
